These results are taken from patent US4931463A, “Oxetanones” (Hoffmann-La Roche Inc., priority 1987, dated 1990).

Where two headings read alike, the source gives them in different places.

For one data set, the target named is T1, pig pancreas lipase (Sus scrofa, UniProt P00591).
T1 sequence (P00591 1-450): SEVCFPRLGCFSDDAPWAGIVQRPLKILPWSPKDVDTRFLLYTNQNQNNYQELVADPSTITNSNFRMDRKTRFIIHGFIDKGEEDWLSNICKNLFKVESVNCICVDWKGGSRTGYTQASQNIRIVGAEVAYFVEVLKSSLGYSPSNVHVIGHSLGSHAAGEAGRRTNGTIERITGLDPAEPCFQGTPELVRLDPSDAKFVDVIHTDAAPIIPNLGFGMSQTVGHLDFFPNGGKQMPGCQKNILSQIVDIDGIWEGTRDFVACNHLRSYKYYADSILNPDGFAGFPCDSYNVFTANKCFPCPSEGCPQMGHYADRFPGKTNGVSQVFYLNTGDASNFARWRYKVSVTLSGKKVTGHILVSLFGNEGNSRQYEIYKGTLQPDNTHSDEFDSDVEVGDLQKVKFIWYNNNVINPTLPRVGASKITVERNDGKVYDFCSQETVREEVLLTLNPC
Nature of the data set: Inhibition of pancreas lipase, titrimetric registration of oleic acid liberated in the cleavage of triolein. Format: biochemical. The protocol:
To an emulsion which contains 1 mM of taurodeoxycholate, 9 mM of taurocholeate, 0.1 mM of cholesterol, 1 mM of egg lecithin, 15 mg/ml of BSA, 2 mM of Tris HCl, 100 mM of sodium chloride, 1 mM of calcium chloride and triolein as the substrate was added the compound of formula I dissolved in ethanol or dimethyl sulfoxide (10% of the emulsion volume) and the reaction was started by the addition of 100 μg (175 U) of pig pancreas lipase. The pH was held at 8 during the reaction by the addition of sodium hydroxide solution. The IC50 was calculated from the consumption of sodium hydroxide solution determined during 10 minutes. The IC50 was that concentration at which the lipase activity was inhibited to half of the maximum.

Another data set deals with mice. Nature of the data set: Acute toxicity after single oral administration to mice. Format: in vivo.
The mark [1] stands for this setting: pig pancreas lipase 100 μg (175 U), triolein substrate, pH 8, 10 minutes, concentration at which lipase activity was inhibited to half of the maximum, read-out: IC50 (converted).

Consider `C=CC[C@@H]1C(=O)O[C@H]1CC(CCCCCCCCCCC)OC(=O)[C@H](CC(C)C)NC=O` (mixture of isomers) [Example 2, 14, N-formyl-L-leucine 1-[(trans-3-allyl-4-oxo-2-oxetanyl)methyl]dodecyl ester], for which, at pig pancreas lipase, the IC50 was 0.0332 µM. In addition, the “Toxicity (dose of the compound at which the animal survives)” value (“Toxicity” below) in the data set on mice is 5000 mg/kg p.o. In the case of `CCCCCCCCCCCCCCCCC[C@@H](C[C@@H]1OC(=O)[C@H]1CC)OC(=O)[C@H](CC(C)C)NC=O` [Example 4, 1, N-formyl-(S)-leucine (S)-1[[(2S,3S)-3-ethyl-4-oxo-2-oxetanyl]methyl]octadecyl ester], at pig pancreas lipase (setting [1]), the 50% inhibitory concentration (IC50) was 0.21 µM. In the case of `CCCCCCCCCCC[C@H](O)C[C@@H]1OC(=O)[C@H]1CCCCCC` (relative stereo) [Example 9 F.2., rac-trans-3-hexyl-4-(2-hydroxytridecyl)-2-oxetanone(2S,3S,4S:2R,3R,4R)], the IC50 on pig pancreas lipase (setting [1]) was 240 µM. On the same count and under the same terms, the result for `CC[C@@H]1C(=O)O[C@H]1C[C@@H](OC(=O)[C@H](CC(C)C)NC=O)c1ccc(Oc2ccccc2)cc1` [Example 2, 25a, N-formyl-(S)-leucine (R)-α-[[(2S,3S)-3-ethyl-4-oxo-2-oxetanyl]methyl]-p-phenoxybenzyl ester] reads 0.022 µM; that for `CCCCC/C=C\C/C=C\CCCCCCC[C@@H](C[C@@H]1OC(=O)[C@H]1CC)OC(=O)[C@H](CC(C)C)NC=O` [Example 2, 21], 0.0385 µM. Same read-out and setting: the result for `CCCCCCCCCCCC(C[C@@H]1OC(=O)[C@H]1CC)OC(=O)[C@H](CC(C)C)NC=O` (single isomer, unassigned) [Example 2, 13a, N-formyl-L-leucine 1-[(trans-3-ethyl-4-oxo-2-oxetanyl)methyl]dodecyl ester] reads 0.0159 µM. With `C=CCC[C@@H](C[C@@H]1OC(=O)[C@H]1CCCCCCCCCC)OC(=O)[C@H](CC(C)C)NC=O` [Example 2, 34, N-formyl-L-leucine (S)-1-[[(2S,3S)-3-decyl-4-oxo-2-oxetanyl]methyl]-4-pentenyl ester], the IC50 at pig pancreas lipase is 0.288 µM. In addition, in the data set with mice, the “Toxicity” value is on record as 4000 mg/kg p.o.

Consider `CCCCCC[C@@H]1C(=O)O[C@H]1C[C@H](CCCC)OC(=O)[C@H](Cc1ccccc1)NC=O` [Example 6, 2, N-formyl-L-phenylalanine (S)-1-[[(2S,3S)-3-hexyl-4-oxo-2-oxetanyl]methyl]-4-pentyl ester], for which the IC50 at pig pancreas lipase is 2.32 µM. In the case of `CCCCCC[C@@H]1C(=O)O[C@H]1CC(CCCC)OC(=O)[C@H](CC(C)C)NC=O` (mixture of isomers) [Example 5, N-formyl-L-leucine 1-[(trans-3-hexyl-4-oxo-2-oxetanyl]-methyl]pentyl ester], the IC50 on pig pancreas lipase (setting [1]) was 0.503 µM.

In the case of `CCCCCCCCCCCC(C[C@@H]1OC(=O)[C@H]1CCCCCC)OC(=O)[C@@H](N)CC(C)C` (relative stereo) [Example 7, leucine 1-[(trans-3-hexyl-4-oxo-2-oxetanyl)methyl]dodecyl ester], the IC50 at pig pancreas lipase (setting [1]) was 32.1 µM. As for `CCCCCCCC/C=C\CCCCCCC[C@@H](C[C@@H]1OC(=O)[C@H]1CC)OC(=O)[C@H](CC(C)C)NC=O` (single isomer, unassigned) [Example 2, 23a], the IC50 at pig pancreas lipase is 0.0671 µM. Besides, the “Toxicity” value with mice came out at 2000 mg/kg p.o.
